The values below are quoted from earlier work in patent publication US20080003300A1, “Compostions containing Mg/Zn/F-CaP plus inhibitors of pro-inflammatory Cytokines (a combination of a Free-B-Ring flavonoids and a flavan) for osteoporosis prevention, therapy and treatment of bone diseases” (priority 2006, published 2008).

Structures are written as SMILES.

One data set deals with T1, COX-2 (Ovis aries, UniProt P79208).
T1 sequence (P79208 17-603): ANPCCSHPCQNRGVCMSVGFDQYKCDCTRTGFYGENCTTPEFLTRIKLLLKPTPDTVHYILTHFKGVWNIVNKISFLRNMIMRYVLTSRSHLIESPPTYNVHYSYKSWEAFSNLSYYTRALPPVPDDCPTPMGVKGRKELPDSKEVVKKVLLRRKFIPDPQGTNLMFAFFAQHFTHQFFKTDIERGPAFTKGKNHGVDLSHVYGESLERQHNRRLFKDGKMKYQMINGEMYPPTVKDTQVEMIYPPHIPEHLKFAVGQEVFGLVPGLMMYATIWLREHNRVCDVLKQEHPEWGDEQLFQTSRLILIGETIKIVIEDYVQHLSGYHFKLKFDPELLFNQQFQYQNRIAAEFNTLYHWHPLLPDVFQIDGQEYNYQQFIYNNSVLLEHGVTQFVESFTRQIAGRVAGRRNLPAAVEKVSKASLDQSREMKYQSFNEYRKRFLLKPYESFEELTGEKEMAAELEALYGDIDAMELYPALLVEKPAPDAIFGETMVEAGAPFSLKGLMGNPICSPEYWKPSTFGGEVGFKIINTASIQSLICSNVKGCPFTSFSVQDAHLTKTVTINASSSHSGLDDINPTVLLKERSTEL
As to conditions: Noreen et al. (1998).

For data set [1], the system named is prostaglandin endoperoxide synthase. As to conditions: Kalkbrenner et al. (1992).
Data set [2] deals with COX-2 gene transcription in human colon cancer DLD-1 cells. To be noted: Mutoh et al. (2000).

As to `Oc1cc(O)c2c(c1)O[C@H](c1ccc(O)c(O)c1)[C@@H](O)C2` [(+)-catechin], the “selectivity for COX-2” value on COX-2 is reported as “no selectivity for COX-2”. As usually defined, the IC50 is the point on the concentration scale where inhibition reaches its midpoint. For `Oc1cc(O)c2c(c1)OC(c1ccc(O)c(O)c1)C(O)C2` (stereo not drawn) [Catechin], the IC50 in data set [1] was 40 µM; in data set [2] it was 415 µM.
